Results published in ChEMBL document CHEMBL4813985, “Lead optimization generates selenium-containing miconazole CYP51 inhibitors with improved pharmacological profile for the treatment of fungal infections” (Eur J Med Chem, 2021).
Converted amounts (≈) assume the structure as drawn.

Assays:
[1] = tested on: Aspergillus fumigatus; assay: Antifungal activity against Aspergillus fumigatus CMGCC3.7795 measured after 72 hrs by broth microdilution assay; format: functional
[2] = tested on: Pichia kudriavzevii; assay: Antifungal activity against Candida krusei AS2.1045 measured after 24 hrs by broth microdilution assay; format: functional
[3] = tested on: Candida albicans; assay: Potency index, ratio of fluconazole MIC to test compound MIC for Candida albicans CPCC400616 measured after 24 hrs by broth microdilution assay; format: functional
[4] = Metabolic stability in mouse liver microsomes assessed as clearance; format: ADME, Microsome; conditions: read-out: CLH
[5] = tested on: Candida albicans; assay: Antifungal activity against fluconazole-resistant Candida albicans 901 assessed as inhibition of microbial growth after 24 hrs by broth microdilution method; format: functional
[6] = Hemolytic activity in rabbit RBC assessed as hemolysis ratio at 2 ug/ml measured after 3 hrs by microplate reader assay relative to control; format: ADME, cell-based, Oryctolagus cuniculus, Erythrocyte; conditions: rabbit red blood cells (erythrocytes), at 2 µg/mL, read-out: Activity
[7] = Metabolic stability in mouse liver microsomes assessed as half life; format: ADME, Microsome
[8] = tested on: Candida albicans; assay: Anti-biofilm activity in Candida albicans CPCC400616 assessed as inhibition of biofilm formation incubated for 24 hrs with 24 hrs precultured fungal suspension by XTT assay; format: functional
[9] = tested on: HL-60; assay: Cytotoxicity against human HL-60 cells assessed as reduction in cell viability incubated for 96 hrs by MTT assay; format: cell-based; conditions: HL-60, 96 h
[10] = tested on: [Candida] zeylanoides; assay: Antifungal activity against Candida zeylanoides CMGCC2.3739 measured after 24 hrs by broth microdilution assay; format: functional; conditions: Dujonia zeylanoides
[11] = tested on: Candida albicans; assay: Anti-biofilm activity in Candida albicans CPCC400616 assessed as inhibition of biofilm formation incubated for 24 hrs with 3 hrs precultured fungal suspension by XTT assay; format: functional
[12] = tested on: Candida albicans; assay: Antifungal activity against fluconazole-resistant Candida albicans 17# assessed as inhibition of microbial growth after 24 hrs by broth microdilution method; format: functional
[13] = tested on: Candida albicans; assay: Anti-biofilm activity in Candida albicans CPCC400616 assessed as inhibition of biofilm formation incubated for 24 hrs with 1.5 hrs precultured fungal suspension by XTT assay; format: functional
[14] = Hemolytic activity in rabbit RBC assessed as hemolysis ratio at 1 ug/ml measured after 3 hrs by microplate reader assay relative to control; format: ADME, cell-based, Oryctolagus cuniculus, Erythrocyte; conditions: rabbit red blood cells (erythrocytes), at 1 µg/mL, read-out: Activity
[15] = Hemolytic activity in rabbit RBC assessed as hemolysis ratio at 4 ug/ml measured after 3 hrs by microplate reader assay relative to control; format: ADME, cell-based, Oryctolagus cuniculus, Erythrocyte; conditions: rabbit red blood cells (erythrocytes), at 4 µg/mL, read-out: Activity
[16] = Hemolytic activity in rabbit RBC assessed as hemolysis ratio at 16 ug/ml measured after 3 hrs by microplate reader assay relative to control; format: ADME, cell-based, Oryctolagus cuniculus, Erythrocyte; conditions: rabbit red blood cells (erythrocytes), at 16 µg/mL, read-out: Activity
[17] = tested on: Candida parapsilosis; assay: Antifungal activity against Candida parapsilosis ATCC 22019 measured after 24 hrs by broth microdilution assay; format: functional; conditions: Lodderomyces parapsilosis
[18] = tested on: Candida albicans; assay: Antifungal activity against Candida albicans CPCC400616 measured after 24 hrs by broth microdilution assay; format: functional
[19] = tested on: MCF-10A; assay: Cytotoxicity against human MCF-10A cells assessed as reduction in cell viability incubated for 96 hrs by MTT assay; format: cell-based; conditions: read-out: IC50
[20] = tested on: Candida albicans; assay: Anti-biofilm activity in Candida albicans CPCC400616 assessed as inhibition of biofilm formation incubated for 24 hrs with 6 hrs precultured fungal suspension by XTT assay; format: functional
[21] = tested on: MDA-MB-231; assay: Cytotoxicity against human MDA-MB-231 cells assessed as reduction in cell viability incubated for 96 hrs by MTT assay; conditions: MDA-MB-231, 96 h
[22] = tested on: Candida albicans; assay: Fungicidal activity against Candida albicans CPCC400616 assessed as fungal killing incubated for 48 hrs followed by culturing on PDA plate for 24 hrs; format: functional; conditions: time 72 hrs
[23] = tested on: Candida albicans; assay: Antifungal activity against fluconazole-resistant Candida albicans 632 assessed as inhibition of microbial growth after 24 hrs by broth microdilution method; format: functional
[24] = tested on: Candida albicans; assay: Antifungal activity against Candida albicans ATCC SC5314 measured after 24 hrs by broth microdilution assay; format: functional
[25] = tested on: Cryptococcus neoformans; assay: Antifungal activity against Cryptococcus neoformans CMGCC2.3161 measured after 72 hrs by broth microdilution assay; format: functional
[26] = tested on: Candida albicans; assay: Antifungal activity against fluconazole-resistant Candida albicans CaR assessed as inhibition of microbial growth after 24 hrs by broth microdilution method; format: functional
[27] = tested on: Candida albicans; assay: Antifungal activity against fluconazole-resistant Candida albicans 904 assessed as inhibition of microbial growth after 24 hrs by broth microdilution method; format: functional
[28] = Hemolytic activity in rabbit RBC assessed as hemolysis ratio at 8 ug/ml measured after 3 hrs by microplate reader assay relative to control; format: ADME, cell-based, Oryctolagus cuniculus, Erythrocyte; conditions: rabbit red blood cells (erythrocytes), at 8 µg/mL, read-out: Activity
[29] = tested on: PC-3; assay: Cytotoxicity against human PC3 cells assessed as reduction in cell viability incubated for 96 hrs by MTT assay; format: cell-based; conditions: PC-3, 96 h, read-out: IC50
[30] = tested on: Nakaseomyces glabratus; assay: Antifungal activity against Candida glabrata measured after 24 hrs by broth microdilution assay; format: functional

## CCc1ccccc1[Se]C(Cn1ccnc1)c1ccc(F)cc1F (centres undefined)
[1]
  MIC: 16 µg/mL (≈ 40.9 µM)
[2]
  MIC: 0.06 µg/mL (≈ 0.153 µM)
[3]
  Ratio: 8
[4]
  CLint scaled: 368 mL/min/kg
[5]
  MIC: 2 µg/mL
[6]
  hemolysis at 3 h, 2 ug/ml: 0%
[7]
  half-life: 14.9 min
[8]
  MIC50: > 128 µg/mL
  MIC80: > 128 µg/mL
[9]
  IC50: 16.9 µM
[10]
  MIC: 0.25 µg/mL (≈ 0.639 µM)
[11]
  MIC50: 16 µg/mL (≈ 40.9 µM)
  MIC80: > 128 µg/mL
[12]
  MIC: 0.5 µg/mL
[13]
  MIC50: 8 µg/mL (≈ 20.4 µM)
  MIC80: 128 µg/mL (≈ 327 µM)
[14]
  hemolysis at 3 h, 1 ug/ml: 0%
[15]
  hemolysis at 3 h, 4 ug/ml: 93.6%
[16]
  hemolysis at 3 h, 16 ug/ml: 100%
[17]
  MIC: 0.03 µg/mL (≈ 0.0767 µM)
[18]
  MIC: 0.06 µg/mL (≈ 0.153 µM)
[19]
  IC50: 28.1 µM
[20]
  MIC50: > 128 µg/mL
  MIC80: > 128 µg/mL
[21]
  IC50: 26.2 µM
[22]
  MFC99: 0.25 µg/mL (≈ 0.639 µM)
[23]
  MIC: 1 µg/mL
[24]
  MIC: 0.03 µg/mL (≈ 0.0767 µM)
[25]
  MIC: 1 µg/mL (≈ 2.56 µM)
[26]
  MIC: 0.5 µg/mL
[27]
  MIC: 0.5 µg/mL
[28]
  hemolysis at 3 h, 8 ug/ml: 100%
[29]
  IC50: 30.2 µM
[30]
  MIC: 0.5 µg/mL (≈ 1.28 µM)
